Earlier results as cited in US20240180809A1, “METHOD FOR DYEING KERATIN MATERIAL, INCLUDING THE USE OF AN ORGANIC C1-C6 ALKOXY SILANE, A DYEING COMPOUND, AND A HEAT TREATMENT” (Henkel AG & Co. KGaA, priority 2021, published 2024).

| Compound | solubility in water (25° C.) | other results |
| --- | --- | --- |
| CCN(Cc1cccc(S(=O)(=O)[O-])c1)c1ccc(C(=C2C=CC(=[N+](CC)Cc3cccc(S(=O)(=O)[O-])c3)C=C2)c2ccccc2S(=O)(=O)[O-])cc1.[Na+].[Na+] [Acid Blue 9] | – | water solubility (25° C.): more than 20 wt. % |
| O=S(=O)([O-])c1ccc(N=Nc2c(O)ccc3ccccc23)cc1.[Na+] [Acid Orange 7, sodium salt of 4-[(2-hydroxy-1-naphthyl)azo]benzene sulphonate] | more than 7 g/L | – |
| Nc1cc(S(=O)(=O)[O-])cc2cc(S(=O)(=O)[O-])c(N=Nc3ccccc3)c(O)c12.[Na+].[Na+] [Acid Red 33, disodium salt of 5-amino-4-hydroxy-3-(phenylazo)-naphthalene-2,7-disulfonate] | 2.5 mg/mL | – |
| O=C([O-])c1c(Cl)c(Cl)c(Cl)c(Cl)c1-c1c2cc(Br)c(=O)c(Br)c-2oc2c(Br)c([O-])c(Br)cc12.[Na+].[Na+] [Acid Red 92, disodium salt of 3,4,5,6-tetrachloro-2-(1,4,5,8-tetrabromo-6-hydroxy-3-oxanthene-9-yl) benzoic acid] | greater than 10 g/L | – |
| O=C([O-])C1=NN(c2ccc(S(=O)(=O)[O-])cc2)C(=O)C1N=Nc1ccc(S(=O)(=O)[O-])cc1.[Na+].[Na+].[Na+] (stereo not drawn) [Acid Yellow 23, trisodium salt of 4,5-dihydro-5-oxo-1-(4-sulfophenyl)-4-((4-sulfophenyl)azo)-1H-pyrazole-3-carboxylic acid] | – | solubility in water (in words) (in water at 25° C.): readily soluble |
| mixture of the sodium salts of mono- and sis-sulfonic acids of 2-(2-quinolyl)-1H-indene-1,3(2H)-dione [Acid Yellow 3] | 20 mg/mL | – |
